From paper PMC9185314 (RSC Advances, 2022)

Molecular target: Jack bean urease (Canavalia ensiformis, UniProt P07374)
Assay: urease inhibition assay, indophenol
Format: biochemical

Chain of Jack bean urease (P07374 whole entry, looked up): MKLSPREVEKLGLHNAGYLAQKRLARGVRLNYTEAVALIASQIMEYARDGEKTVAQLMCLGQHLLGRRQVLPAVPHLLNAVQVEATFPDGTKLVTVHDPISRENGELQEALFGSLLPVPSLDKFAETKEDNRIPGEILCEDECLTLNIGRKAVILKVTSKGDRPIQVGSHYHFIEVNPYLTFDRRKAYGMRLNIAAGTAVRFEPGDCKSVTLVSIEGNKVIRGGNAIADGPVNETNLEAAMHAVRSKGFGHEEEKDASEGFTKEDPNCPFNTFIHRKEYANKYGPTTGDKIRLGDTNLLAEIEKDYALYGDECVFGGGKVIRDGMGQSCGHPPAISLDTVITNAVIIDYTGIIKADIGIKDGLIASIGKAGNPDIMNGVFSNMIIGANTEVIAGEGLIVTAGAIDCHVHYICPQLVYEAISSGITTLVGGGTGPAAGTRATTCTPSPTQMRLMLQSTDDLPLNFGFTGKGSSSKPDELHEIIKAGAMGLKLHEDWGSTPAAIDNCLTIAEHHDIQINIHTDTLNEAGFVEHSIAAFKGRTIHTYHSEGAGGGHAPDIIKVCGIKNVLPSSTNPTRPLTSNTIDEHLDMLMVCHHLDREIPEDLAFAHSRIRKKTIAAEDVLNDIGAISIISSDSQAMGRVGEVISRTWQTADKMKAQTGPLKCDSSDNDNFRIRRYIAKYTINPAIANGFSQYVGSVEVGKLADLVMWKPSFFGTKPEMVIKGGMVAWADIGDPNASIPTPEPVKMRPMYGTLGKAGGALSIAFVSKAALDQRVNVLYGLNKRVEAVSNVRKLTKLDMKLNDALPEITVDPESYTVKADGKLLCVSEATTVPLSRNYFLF

CC(=O)c1ccc(NC(=S)NC(=O)c2ccc(Cl)cc2Cl)cc1 [compound 4, N-((4-Acetylphenyl)carbamothioyl)-2,4-dichlorobenzamide]
IC50: 38.9 ± 1.7 nM
